Measurements published in article PMC5584973, “Characterization of novel bangle lectin from Photorhabdus asymbiotica with dual sugar-binding specificity and its effect on host immunity” (PLoS Pathogens, 2017).
Where two headings read alike, the source gives them in different places.

Columns and labels:
PHL [1] = molecular target: T1, PHL (Photorhabdus asymbiotica, UniProt C7BLE4); type: binding; settings: for Median: calculated from hexaplicates; for relative binding / preference on glycan array: PHL 200 μg/ml
[2] = tested on: phenoloxidase (PO) in haemolymph of G. mellonella; test: Phenoloxidase activity in insect haemolymph; type: biochemical, Galleria mellonella; settings: 0.2M sugar, PHL 475 μg
Description: Larvae of the greater wax moth, Galleria mellonella, were reared on an artificial diet at 30 ± 1°C in constant darkness. Haemolymph was collected from the seventh instar larvae by cutting a proleg and pooling the haemolymph into a tube containing phenylthiourea (1 mg/ml in PBS; haemolymph mixed with phenylthiourea in the ratio 9:1 [v/v]) or used directly for the determination of phenoloxidase activity.
PO activity was measured according to previously published studies. Haemolymph of G. mellonella (5 μl) was collected directly to 95 μl of PHL (475 μg in PBS for all experiments except dose-dependence assay where different dilutions of PHL were used), PLL (475 μg in PBS), BSA (475 μg in PBS) or PBS (pH 7.4) and incubated for 10 min at room temperature. After incubation, 40 μl of reaction mixture was transported to the microplate well and 160 μl of 3,4-dihydroxy-DL-phenylalanine (3 mg/ml in PBS) was added as substrate. The reaction was allowed to proceed for 30 min, and absorbance was measured in 2-min intervals at 492 nm with a Sunrise reader (Tecan, Switzerland). PO activity was expressed as linear increase in absorbance per minute. For the inhibition assay, PHL was pre-incubated with 0.2M L-Fuc or Me-α-L-Fuc for 10 min at room temperature prior to mixing with haemolymph.

PHL [3] = test: Isothermal titration calorimetry (ITC); type: binding, Photorhabdus asymbiotica; settings: ITC, PLL data ref 21
Description: (§1) ITC experiments were performed using an ITC200 calorimeter (Malvern, England). Experiments were performed at 25°C in buffer A (300 mM NaCl, 20 mM Tris/HCl, pH 7.5). Carbohydrate ligands were dissolved in the same buffer. Protein in the cell (50 μM) was titrated by consecutive addition (2 μl) of the ligand in the syringe (1.5–50 mM) while stirring at 1000 rpm. Control experiments performed with injections of buffer in the protein solution yielded insignificant signals. Integrated heat effects were analyzed by nonlinear regression using a single-site binding model in Origin 7 (Microcal). The experimental data fitted to a theoretical titration curve brought up stoichiometry (n), association constant Ka, and the enthalpy of binding ΔH. The other thermodynamic parameters such as free energy (ΔG) and […] (ΔS) were calculated from the equation ΔG = ΔH-TΔS = -RTlnKa, where T is the absolute temperature and R is the molar gas constant (8.314 J.mol^-1.K^-1). At least two independent titrations were carried out for each tested ligand.

PHL [4] = molecular target: T1, PHL; test: Isothermal titration calorimetry (ITC); type: binding; settings: for binding stoichiometry: fitted
Description: as §1

PHL [5] = molecular target: T1, PHL; test: Haemagglutination inhibition assay with PHL; type: cell-based; settings: for Potency towards L-fucose: haemagglutination inhibition, from MIC; for MIC (minimal inhibitory concentration) of haemagglutination by PHL: microscopy
Description: A haemagglutination inhibition assay was performed to determine the specificity and semi-quantitative affinity of PHL interaction with the saccharides. A wide range of monosaccharides at concentrations from 50 mM to 0.5 mM were used for determining the lowest inhibiting concentration. A 20 μl mixture composed of 5 μl PHL (2mg/ml), 5 μl saccharide, and 10 μl 10% RBCs was prepared (all components of reaction were in PBS buffer). After 10 minutes, the reaction was observed using a Levenhuk microscope.

PHL [6] = test: SPR inhibition of PHL binding to immobilized L-fucoside; design: species or system Photorhabdus asymbiotica; settings: IC50 from SPR inhibition, PLL data ref 21
Description: (§2) SPR inhibition experiments were performed using the same conditions described above. The PHL lectin (0.25 μM final concentration) was mixed with various concentrations of inhibitors (1M – 0.01 mM) and injected onto the sensor chip. Pure PHL lectin was used as a control (0% inhibition). The response of the lectin bound to the sugar surface at equilibrium was plotted against the concentration of inhibitor in order to determine IC50.

PHL [7] = molecular target: T1, PHL; test: as above; settings: for Potency relative to L-Fuc: SPR inhibition, from IC50
Description: as §2

[8] = glycan array signal of labelled PHL for the printed glycan/polysaccharide, Semiotic slide 10085636
[9] = glycan array signal of PHL per printed glycan, microarray chip (Semiotic, Moscow; Slide number 10085636), 488 channel
[10] = ITC at 25°C, stoichiometry fixed to 3, read-out: KD (n = 3)
[11] = ITC at 25°C, stoichiometry fixed to 4, read-out: KD (n = 4)
[12] = ITC, stoichiometry not fixed, read-out: equilibrium dissociation constant
[13] = SPR, PHL 0.25 μM binding to immobilized L-fucoside, 25°C, read-out: IC50

T1 sequence (C7BLE4 1-369): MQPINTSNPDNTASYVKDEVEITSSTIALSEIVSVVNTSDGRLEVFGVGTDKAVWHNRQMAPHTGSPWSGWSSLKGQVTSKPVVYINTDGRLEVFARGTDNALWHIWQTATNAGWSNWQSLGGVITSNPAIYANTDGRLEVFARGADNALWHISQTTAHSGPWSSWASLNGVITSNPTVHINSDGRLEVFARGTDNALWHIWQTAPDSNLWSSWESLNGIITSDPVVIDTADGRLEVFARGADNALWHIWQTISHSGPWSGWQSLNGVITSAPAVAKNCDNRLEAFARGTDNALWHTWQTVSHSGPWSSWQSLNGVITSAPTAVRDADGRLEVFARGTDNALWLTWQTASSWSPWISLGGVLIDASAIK

4,6-O-Su2-Galβ1-4GlcNAcβ-sp2
Median (PHL [1]; [8]): 77

GalNAcα1-3Galβ1-4(Fucα1-3)GlcNAcβ-sp3
Median (PHL [1]; [8]): 73

6-O-Su-Galβ1-3GlcNAcβ-sp3
Median (PHL [1]; [8]): 73

GalNAcα1-3(Fucα1-2)Galβ1-4GlcNAcβ-sp3
Median (PHL [1]; [9]): 79

4-O-Su-Galβ1-4GlcNAcβ-sp3
Median (PHL [1]; [8]): 77

GlcNAcβ1-4Galβ1-4GlcNAcβ-sp2
Median (PHL [1]; [9]): 86

COC[C@H]1O[C@@H](O[C@@H]2[C@@H](OC)[C@@H](OC)[C@H](Oc3ccc(OCCN)cc3)O[C@H]2C)[C@H](O)[C@@H](OC)[C@@H]1O [3,6-O-Me2-Glcβ1-4(2,3-O-Me2)Rhaα-O-(p-C6H4)-OCH2CH2NH2]
relative binding / preference on glycan array (PHL [1]): most preferred complex saccharide

C[C@H](O)[C@@H](O)[C@@H](O)[C@H](O)C=O [L-Fuc, L-fucose]
PHL activation of melanisation in the presence of sugar [2]: inhibited
fold higher affinity of PHL than PLL (PHL [3]): approx. 4 fold
Kd (PHL [4]; [10]): 1400 ± 30 µM
Kd (PHL [4]; [11]): 1330 ± 40 µM
Potency towards L-fucose (PHL [5]): 1
MIC (minimal inhibitory concentration) of haemagglutination by PHL (PHL [5]): 3125 µM
fold better inhibition effect for PHL than for PLL (PHL [6]): 15 fold
IC50 (PHL [7]): 360 µM

C[C@@H]1O[C@@H](O[C@H]2C(O)O[C@H](CO)[C@H](O)[C@@H]2O[C@H]2O[C@H](CO)[C@H](O)[C@H](O)[C@H]2O)[C@@H](O)[C@H](O)[C@@H]1O (stereo partly shown) [BGB trisaccharide]
relative binding / preference on glycan array (PHL [1]): strongest binding to human-related oligosaccharides
Kd (PHL [4]; [10]): 570 ± 10 µM
Kd (PHL [4]; [11]): 510 ± 10 µM
binding stoichiometry (PHL [4]; ITC): ~4.3
Kd (PHL [4]; [12]): 490 µM
Potency towards L-fucose (PHL [5]): 10
Potency relative to L-Fuc (PHL [7]): 5.15
Potency relative to L-Fuc (PHL [7]; listed as blood group B trisaccharide): ~5
IC50 (PHL [7]; [13]): 70 µM

CO[C@@H]1O[C@@H](C)[C@@H](O)[C@@H](O)[C@@H]1O [Me-α-L-Fuc, Methyl-α-L-fucopyranoside]
PHL activation of melanisation in the presence of sugar [2]: inhibited
fold higher affinity of PHL than PLL (PHL [3]): approx. 4 fold
Kd (PHL [4]; [10]): 260 ± 40 µM
Kd (PHL [4]; [11]): 210 µM
binding stoichiometry (PHL [4]; ITC): approx. 2.9
Kd (PHL [4]; [12]): 270 µM
Potency towards L-fucose (PHL [5]): 8
MIC (minimal inhibitory concentration) of haemagglutination by PHL (PHL [5]): 390 µM
fold better inhibition effect for PHL than for PLL (PHL [6]): 42 fold
IC50 (PHL [7]; [13]): 40 µM

NCC(O)C(O)C(O)C(O)CO (stereo not shown) [HOCH2(HOCH)4CH2NH2]
Median (PHL [1]; [8]): 70

Galα1-4GlcNAcβ-sp8
Median (PHL [1]; [8]): 75

6-H2PO3Manα-sp3
Median (PHL [1]; [9]): 83

O=C[C@H](O)[C@@H](O)[C@@H](O)[C@H](O)CO [D-Gal, D-galactose]
Kd (PHL [4]; KD (n = 3), ITC at 25°C, stoichiometry fixed to 3): 890 ± 20 µM
Kd (PHL [4]; KD (n = 4), ITC at 25°C, stoichiometry fixed to 4): 830 ± 20 µM
Potency towards L-fucose (PHL [5]): <0.01
Potency relative to L-Fuc (PHL [7]): < 0.01

GlcNAcβ-sp8
Median (PHL [1]; [9]): 78

6-O-Su-Galβ1-3GalNAcα-sp3
Median (PHL [1]; [9]): 81

6-O-Su-Galβ1-3(6-O-Su)GlcNAcβ-sp2
Median (PHL [1]; [9]): 87

CC(=O)N[C@H]1C(O)O[C@H](CO)[C@@H](O[C@@H]2O[C@H](CO)[C@H](O)[C@H](O)[C@H]2O[C@@H]2O[C@@H](C)[C@@H](O)[C@@H](O)[C@@H]2O)[C@@H]1O (stereo partly shown) [BGH trisaccharide]
Kd (PHL [4]; [10]): 4440 ± 190 µM
Kd (PHL [4]; [11]): 4350 ± 190 µM
Potency towards L-fucose (PHL [5]): <0.01
Potency relative to L-Fuc (PHL [7]): 0.33
IC50 (PHL [7]; [13]): 1090 µM

OC[C@H]1OC(O)[C@H](O)[C@@H](O)[C@@H]1O (stereo partly drawn) [D-Glc]
Kd (PHL [4]; [10]): 3550 ± 150 µM
Kd (PHL [4]; [11]): 3480 ± 150 µM
Potency towards L-fucose (PHL [5]): <0.01
Potency relative to L-Fuc (PHL [7]): < 0.01

GalNAcβ1-4GlcNAcβ-sp2
Median (PHL [1]; [9]): 87

Curdlan
Median (PHL [1]; [8]): 75

CC(=O)N[C@H]1C(O)O[C@H](CO)[C@@H](O[C@@H]2O[C@@H](C)[C@@H](O)[C@@H](O)[C@@H]2O)[C@@H]1O (stereo partly shown) [Fucα1-4GlcNAc]
Kd (PHL [4]; [10]): 4460 ± 310 µM
Kd (PHL [4]; [11]): 4370 ± 310 µM
Potency towards L-fucose (PHL [5]): 1.3
MIC (minimal inhibitory concentration) of haemagglutination by PHL (PHL [5]): 2500 µM
Potency relative to L-Fuc (PHL [7]): 0.49
IC50 (PHL [7]; [13]): 730 µM

Galβ1-6Galβ-sp4
Median (PHL [1]; [9]): 85

CC(=O)N[C@H]1C(O)O[C@H](CO)[C@@H](O)[C@@H]1O[C@@H]1O[C@@H](C)[C@@H](O)[C@@H](O)[C@@H]1O (stereo partly shown) [Fucα1-3GlcNAc]
Kd (PHL [4]; [10]): 3520 ± 210 µM
Kd (PHL [4]; [11]): 3430 ± 210 µM
Potency towards L-fucose (PHL [5]): 1.3
MIC (minimal inhibitory concentration) of haemagglutination by PHL (PHL [5]): 2500 µM
Potency relative to L-Fuc (PHL [7]): 0.53
IC50 (PHL [7]; [13]): 690 µM

Galβ1-4GlcNAcβ-sp8
Median (PHL [1]; [9]): 83

CC(=O)N[C@H]1[C@H](OCCCN)O[C@H](CO)[C@@H](O[C@@H]2O[C@H](CO)[C@H](OS(=O)(=O)O)[C@H](OS(=O)(=O)O)[C@H]2O)[C@@H]1O [3,4-O-Su2-Galβ1-4GlcNAcβ-sp3]
Median (PHL [1]; [9]): 87

Galβ1-4GlcNAcβ1-6(Galβ1-4GlcNAcβ1-3)GalNAcα-sp3
Median (PHL [1]; [8]): 71

CC(=O)N[C@@H]1[C@@H](O)[C@H](O)[C@@H](CO)O[C@@H]1O [D-GlcNAc, N-acetyl-D-glucosamine]
Potency towards L-fucose (PHL [5]): <0.01
Potency relative to L-Fuc (PHL [7]): 0.01
IC50 (PHL [7]; [13]): 70500 µM

Galα1-3Galβ1-4GlcNAcβ-sp3
Median (PHL [1]; [8]): 70

CO[C@H]1O[C@@H](C)[C@@H](O)[C@@H](O)[C@@H]1O [Me-β-L-Fuc, methyl-β-L-fucopyranoside]
Kd (PHL [4]; [10]): 3550 ± 90 µM
Kd (PHL [4]; [11]): 3480 ± 90 µM
Potency towards L-fucose (PHL [5]): 0.5
MIC (minimal inhibitory concentration) of haemagglutination by PHL (PHL [5]): 6250 µM
Potency relative to L-Fuc (PHL [7]): 0.47
IC50 (PHL [7]; [13]): 770 µM

CC(=O)N[C@H]1[C@@H](OC[C@H](N)C(=O)O)O[C@H](CO)[C@H](O)[C@@H]1O [GalNAcα1-OSer]
Median (PHL [1]; [8]): 71

OC[C@H]1OC(O)[C@@H](O)[C@@H](O)[C@@H]1O (stereo partly drawn) [D-Man, D-mannose]
Kd (PHL [4]; [10]): 44600 ± 2000 µM
Kd (PHL [4]; [11]): 44400 ± 2000 µM
Potency towards L-fucose (PHL [5]): <0.01
Potency relative to L-Fuc (PHL [7]): < 0.01

CC(=O)N[C@H]1[C@@H](O[C@H]2[C@@H](O)[C@@H](CO)O[C@@H](O)[C@@H]2O[C@@H]2O[C@@H](C)[C@@H](O)[C@@H](O)[C@@H]2O)O[C@H](CO)[C@H](O)[C@@H]1O [BGA trisaccharide]
Kd (PHL [4]; [10]): 1450 ± 30 µM
Kd (PHL [4]; [11]): 1380 ± 40 µM
Potency towards L-fucose (PHL [5]): 1.3
MIC (minimal inhibitory concentration) of haemagglutination by PHL (PHL [5]): 2500 µM
Potency relative to L-Fuc (PHL [7]): 1.21
IC50 (PHL [7]; [13]): 300 µM

CC(=O)N[C@@H]1[C@@H](O)[C@H](O[C@@H]2O[C@H](CO)[C@@H](O)[C@H](O)[C@H]2NC(C)=O)[C@@H](CO)O[C@H]1NC(=O)C[C@H](N)C(=O)O [GlcNAcβ1-4GlcNAcβ-Asn]
Median (PHL [1]; [8]): 77

4,6-O-Su2-GalNAcβ1-4-(3-O-Ac)GlcNAcβ-sp3
Median (PHL [1]; [9]): 81
